Experiment: qHTS cell viability (CellTiter-Glo, 72 h; primary screen), control cell line
Assay type: cell-based, mouse
Conditions: mouse, read-out: Percent viability

## COCCn1c2c([n+](Cc3cnccn3)c1C)C(=O)c1ccccc1C2=O [sepantronium bromide, reference compound]
NIH-3T3 cells (control cell line), 3T3, Log (M) -4.81358
  viability at 72 h, 15.4 µM: 62.5%
NIH-3T3 cells (control cell line), 3T3, Log (M) -5.2907
  viability at 72 h, 5.12 µM: 69.8%
NIH-3T3 cells (control cell line), 3T3, Log (M) -5.76782
  viability at 72 h, 1.71 µM: 96.1%
NIH-3T3 cells (control cell line), 3T3, Log (M) -6.24494
  viability at 72 h, 0.569 µM: 104%
NIH-3T3 cells (control cell line), 3T3, Log (M) -6.72207
  viability at 72 h, 190 nM: 100%
NIH-3T3 cells (control cell line), 3T3, Log (M) -7.19919
  viability at 72 h, 63.2 nM: 100%
NIH-3T3 cells (control cell line), 3T3, Log (M) -7.67631
  viability at 72 h, 21.1 nM: 104%
NIH-3T3 cells, 3T3, Log (M) -4.33646
  viability at 72 h, 46.1 µM: 20.8%
NIH-3T3 cells, 3T3, Log (M) -8.15343
  viability at 72 h, 7.02 nM: 103%
NIH-3T3 cells, 3T3, Log (M) -8.63055
  viability at 72 h, 2.34 nM: 100%
NIH-3T3 cells, 3T3, Log (M) -9.10767
  viability at 72 h, 0.78 nM: 100%

Reference: paper PMC11822212, “High-throughput screening identifies Aurora kinase B as a critical therapeutic target for Merkel cell carcinoma” (Nature Communications, 2025)
